From patent publication US12257264B2, “Combination therapy for HIV with adenosine derivative and capsid inhibitors” (Brii Biosciences, Inc., priority 2021, dated 2025)
Several values for one entry are separate records, joined by “and”; a condition that tells them apart may be missing. Equal values may be shown once.

Legend:
[1] = Plasma exposures following IV infusion alone or in combination to Sprague-Dawley rats
Description: The pharmacokinetics of EFdA and prodrug formula 4-A, as well as lenacapavir were studied in rats after IV infusion administration alone or in combination at a dose of 1.0 mg/kg each.
Formulations: The prodrugs and lenacapavir were formulated alone or in combination as solutions at 1.0 mg/mL each in 20% […], 10% Solutol aqueous solution within 0.5 hour prior to dose.
Dose Administration and Sample Collection: The in-life phase of this study was conducted at the WuXi Apptec (WuXi) at Shanghai, China in accordance with the WuXi Institutional Animal Care and Use Committee (IACUC) standard animal procedures along with the IACUC guidelines that are in compliance with the Animal Welfare Act, the Guide for the Care and Use of Laboratory Animals. and was approved by the IACUA Committee. Male Sprague-Dawley rats (0.262+/−0.019 kg) were used for the studies. Each drug was administered as a single dose by 30-min IV infusion (1 ml/kg) alone or in combination. Plasma samples were collected at 0 (pre-dose), 5, 10, 15 and 30 min, 1, 2, 4, 7, 12 and 24 h post-dose. Blood (approximately 0.1 mL) was processed immediately for plasma by centrifugation at 3,200 g at 4° C. for 10 min within half an hour of collection. Plasma samples were frozen and maintained at −70° C. until analyzed. To stabilize the prodrug at the sample collection and subsequent analysis, the following stabilizing reagents were added to the blood collection K2EDTA tubes on wet ice prior to sample collection: for each 100 mL of blood, 10 mL of premade inhibitor cocktail consists of 600 mM Citric Acid, 400 mM PMSF, 400 mM NaF, and 400 mM Dichlorvos.
Determination of EFdA and Prodrugs in plasma: Briefly, plasma (20 μL) was mixed with 100 l acetonitrile to precipitate protein. Consistent with sample collection procedure, the same cocktail protocol was also added to stabilize the prodrug in the standard and QC samples.
Bioanalysis: A Sciex API-6500 Plus triplequadrupole mass spectrometer coupled with a Waters Acquity UPLC system (Framingham, MA 01701) was used for quantitative analysis of plasma samples. The column was a Waters HSS T3 column (2.1×50 mm, 1.8 micrometer). The mobile phases used were: A, 0.1% formic acid in water; B, 0.1% formic acid in acetonitrile. For the analysis of EFdA and prodrugs in plasma, the flow rate was 0.6 mL/min with a total run time of 2.0 min. […] Detection of the prodrug and EFdA were achieved using positive ion electrospray mass spectroscopic mode using unit resolution mode. Multiple reaction monitoring (MRM) modes were used to quantify both prodrug and EFdA, e.g. the MRM transition for EFdA was 294.0-154.2 Da, and the transition for prodrug 4-A was 449.3-164.9 Da. For the analysis of lenacapavir in plasma, the flow rate was 0.7 mL/min with a total run time of 1.5 min. The HPLC gradient was initiated at 95% A/5% B for 0.50 min, followed by linear gradient increase to […] over the next 0.2 min; the gradient was subsequently maintained at 100% of mobile B over the next 0.7 min before ramping down to 95% mobile phase A within the following 0.1 min. Detection of lenacapavir was achieved using positive ion electrospray mass spectroscopic mode using unit resolution mode. Multiple reaction monitoring (MRM) modes were used to quantify lenacapavir, e.g. the MRM transition for lenacapavir was 968.1-869.4 Da. Peak areas were integrated by the Sciex program Analyst®, version 1.6.3, operating on a Windows 7 computer where concentrations were determined by a weighted (1/x2) linear regression of peak area ratios (peak area of EFdA/peak area of corresponding IS) versus the nominal concentrations of the plasma calibration standards. Calculations were performed on unrounded numbers. Overall, Analyst® determined the precision and accuracy for the calibration standards and QC samples.

[2] = tested on: HIV-1 NL4-3 in MT-4 cells; assay: Two-drug combination antiviral cytoprotection (CPE) assay, MacSynergy II analysis; format: cell-based; details: HIV-1 NL4-3 virus in MT4 cells
Description: On the day preceding the assay, the cells were split 1:2 to assure they were in an exponential growth phase at the time of infection.
Combination cytotoxicity was evaluated in parallel on two identical assay plates (i.e., duplicate measurements) that included cell control wells.

[3] = Prodrug formula 4-A IV infusion 1.0 mg/kg alone, 4.00 hrs, individual animals
[4] = Prodrug formula 4-A IV infusion 1.0 mg/kg alone, 7.00 hrs, individual animals
[5] = Prodrug formula 4-A IV infusion 1.0 mg/kg alone, 12.0 hrs, individual animals
[6] = Prodrug formula 4-A IV infusion 1.0 mg/kg alone, 24.0 hrs, individual animals
[7] = Prodrug formula 4-A IV infusion 1.0 mg/kg with Lenacapavir, 7.00 hrs, individual animals
[8] = Prodrug formula 4-A IV infusion 1.0 mg/kg with Lenacapavir, 12.0 hrs, individual animals
[9] = Prodrug formula 4-A IV infusion 1.0 mg/kg with Lenacapavir, 24.0 hrs, individual animals
[10] = Prodrug formula 4-A IV infusion 1.0 mg/kg with Lenacapavir, 48.0 hrs, individual animals
[11] = Prodrug formula 4-A IV infusion 1.0 mg/kg with Lenacapavir, 72.0 hrs, individual animals

C#C[C@]1(COC(=O)OCc2oc(=O)oc2C)O[C@@H](n2cnc3c(N)nc(F)nc32)C[C@@H]1O [Formula 4-A, ((2R,3S,5R)-5-(6-amino-2-fluoro-9H-purin-9-yl)-2-ethynyl-3-hydroxytetrahydrofuran-2-yl)methyl ((5-methyl-2-oxo-1,3-dioxol-4-yl)methyl) carbonate]
Prodrug formula 4A Concentrations in Rat Plasma When Dosed alone ([1]; Prodrug formula 4-A IV infusion 1.0 mg/kg alone, 0.0830 hrs, individual animals): BQL
Prodrug formula 4A Concentrations in Rat Plasma When Dosed alone ([1]; Prodrug formula 4-A IV infusion 1.0 mg/kg alone, 0.167 hrs, individual animals): BQL
Prodrug formula 4A Concentrations in Rat Plasma When Dosed alone ([1]; Prodrug formula 4-A IV infusion 1.0 mg/kg alone, 0.250 hrs, individual animals): BQL
Prodrug formula 4A Concentrations in Rat Plasma When Dosed alone ([1]; Prodrug formula 4-A IV infusion 1.0 mg/kg alone, 0.500 hrs, individual animals): BQL
Prodrug formula 4A Concentrations in Rat Plasma When Dosed alone ([1]; Prodrug formula 4-A IV infusion 1.0 mg/kg alone, 1.00 hrs, individual animals): BQL
Prodrug formula 4A Concentrations in Rat Plasma When Dosed alone ([1]; Prodrug formula 4-A IV infusion 1.0 mg/kg alone, 2.00 hrs, individual animals): BQL
EFdA Concentrations in Rat Plasma When Dosed Alone [1, 3]: BQL
Prodrug formula 4A Concentrations in Rat Plasma When Dosed alone [1, 3]: BQL
EFdA Concentrations in Rat Plasma When Dosed Alone [1, 4]: BQL
Prodrug formula 4A Concentrations in Rat Plasma When Dosed alone [1, 4]: BQL
EFdA Concentrations in Rat Plasma When Dosed Alone [1, 5]: BQL
Prodrug formula 4A Concentrations in Rat Plasma When Dosed alone [1, 5]: BQL
EFdA Concentrations in Rat Plasma When Dosed Alone [1, 6]: BQL
Prodrug formula 4A Concentrations in Rat Plasma When Dosed alone [1, 6]: BQL
Prodrug formula 4A Concentrations in Rat Plasma When Dosed with Lenacapavir ([1]; Prodrug formula 4-A IV infusion 1.0 mg/kg with Lenacapavir, 0.0830 hrs, individual animals): 1.37 ng/mL and 5.19 ng/mL and 1.54 ng/mL and 2.80 ng/mL
Prodrug formula 4A Concentrations in Rat Plasma When Dosed with Lenacapavir ([1]; Prodrug formula 4-A IV infusion 1.0 mg/kg with Lenacapavir, 0.167 hrs, individual animals): BQL
Prodrug formula 4A Concentrations in Rat Plasma When Dosed with Lenacapavir ([1]; Prodrug formula 4-A IV infusion 1.0 mg/kg with Lenacapavir, 0.250 hrs, individual animals): 1.13 ng/mL and BQL (2×) and 2.38 ng/mL
Prodrug formula 4A Concentrations in Rat Plasma When Dosed with Lenacapavir ([1]; Prodrug formula 4-A IV infusion 1.0 mg/kg with Lenacapavir, 0.500 hrs, individual animals): BQL
Prodrug formula 4A Concentrations in Rat Plasma When Dosed with Lenacapavir ([1]; Prodrug formula 4-A IV infusion 1.0 mg/kg with Lenacapavir, 1.00 hrs, individual animals): BQL
Prodrug formula 4A Concentrations in Rat Plasma When Dosed with Lenacapavir ([1]; Prodrug formula 4-A IV infusion 1.0 mg/kg with Lenacapavir, 2.00 hrs, individual animals): BQL
Prodrug formula 4A Concentrations in Rat Plasma When Dosed with Lenacapavir ([1]; Prodrug formula 4-A IV infusion 1.0 mg/kg with Lenacapavir, 4.00 hrs, individual animals): BQL
EFdA Concentrations in Rat Plasma When Dosed with Lenacapavir [1, 7]: BQL
Prodrug formula 4A Concentrations in Rat Plasma When Dosed with Lenacapavir [1, 7]: BQL
EFdA Concentrations in Rat Plasma When Dosed with Lenacapavir [1, 8]: BQL
Prodrug formula 4A Concentrations in Rat Plasma When Dosed with Lenacapavir [1, 8]: BQL
EFdA Concentrations in Rat Plasma When Dosed with Lenacapavir [1, 9]: BQL
Prodrug formula 4A Concentrations in Rat Plasma When Dosed with Lenacapavir [1, 9]: BQL
EFdA Concentrations in Rat Plasma When Dosed with Lenacapavir [1, 10]: BQL
Prodrug formula 4A Concentrations in Rat Plasma When Dosed with Lenacapavir [1, 10]: BQL
EFdA Concentrations in Rat Plasma When Dosed with Lenacapavir [1, 11]: BQL
Prodrug formula 4A Concentrations in Rat Plasma When Dosed with Lenacapavir [1, 11]: BQL
concentration at 0.25 h ([1]; male, Sprague-Dawley, rat, in vivo, 1 mg/kg, Prodrug formula 4A Concentrations in Rat Plasma When Dosed alone, Prodrug formula 4-A IV infusion 1.0 mg/kg alone, 0.250 hrs, individual animals): 2.27 ng/mL
concentration at 0.083 h ([1]; male, Sprague-Dawley, rat, in vivo, Prodrug formula 4A Concentrations in Rat Plasma When Dosed with Lenacapavir, Prodrug formula 4-A IV infusion 1.0 mg/kg with Lenacapavir, 0.0830 hrs, Mean): 2.73 ng/mL
concentration at 0.25 h ([1]; male, Sprague-Dawley, rat, in vivo, Prodrug formula 4A Concentrations in Rat Plasma When Dosed with Lenacapavir, Prodrug formula 4-A IV infusion 1.0 mg/kg with Lenacapavir, 0.250 hrs, Mean): 1.76 ng/mL
Prodrug detected in the systemic circulation ([1]; rats, in the absence and presences of lenacapavir): minimal prodrug detected in the systemic circulation
Antiviral activity upon combination with lenacapavir [2]: synergistic antiviral activity
